Experimental data reported in US20060247260A1, “Bis (hetero) aryl carboxamide derivatives for use as PG12 antagonists” (BAYER HEALTHCARE AG, priority 2003, published 2006).

target: T1, PGI2 receptor (Homo sapiens, UniProt P43119); assay: PGI2 receptor binding/cAMP in HEL cells (in vitro activity grade); conditions: compounds of purity about 40 to 90%
T1 construct: host or cells: HEL 92.1.7 human erythroleukemia cells (whole cells)
Protocol: [Measurement of the [^3H]-Iloprost Binding to HEL Cells] (Assay 1) A human erythloleukemia cell line, HEL 92.1.7, was purchased from American Type Culture Correction and maintained in RPMI-1640 medium (Gibco BRL) supplemented with 10% fetal calf serum (FCS), 2 mM glutamine, 4.5 g/L glucose, 10 mM Hepes, 1 mM sodium pyruvate, 100 U/ml penicillin, and 100 μg/ml streptomycin in a humidified 5% CO2 atmosphere at 37° C. Cells were collected with centrifugation and washed with binding assay buffer (BAB: 50 mM Tris-HCl, 5 mM MgCl2 (pH 7.5)). Cells were suspended at the density of 6.25×10^6 cells/ml in BAB, and one million cells in 160 μl aliquot of cell suspension were put in a well of 96 well plate (Falcon). Then, 20 μl of compound solution, 100 μM of iloprost (for non-specific binding), or buffer alone (total binding), diluted with 1% DMSO in BAB was added. Finally, another 20 μl containing [^3H]-iloprost (0.02 μCi, 0.5-1 pmol) in BAB was added and incubated at room temperature for 30 min with a gentle shaking. Cell suspension was then transferred to a well of MultiScreen plate with GF/C glass filters (Millipore) to harvest cells. Cells were washed twice with 200 μl of ice-cold BAB and the plate was kept at 55° C. for 30 min to dry filters. The filter in the well was punched out to a counting tube and 2 ml of Ultima Gold XR Packard) was added. [^3H]-radio activity in the filter was measured by a liquid scintillation counter (Beckman, USA). [Iloprost-Induced cAMP Production Assay in HEL Cells] (Assay 2) HEL cells were collected with centrifugation and washed with cAMP assay buffer (CAB: Hank's balanced salt solution, 17 mM Hepes, 0.1% bovine serum albumin, 1 mM IBMX, 0.4% DMSO, and 1 mM L-ascorbic acid sodium salt (pH 7.4)). Cells were suspended at the density of 2.5×10^5 cells/ml in CAB, and twenty thousand cells in 80 μl aliquot of cell suspension were put in a well of 96 well plate (Falcon). Then, 10 μl of compound solution diluted with 1% DMSO in CAB or buffer alone was added. The plate was incubated at 37° C. for 30 min. Then, another 10 μl containing 100 nM iloprost in CAB or buffer alone was added and further incubated at 37° C. for 30 min. cAMP content in the well was measured by, a cAMP ELISA kit (Applied Biosystems, USA). The data corresponds to the compounds as yielded by solid phase synthesis and thus to levels of purity of about 40 to 90%. For practical reasons, the compounds are grouped in three classes of activity as follows: In vitro activity grade=A≦0.1 μM<B≦1 μM<C

T1 sequence (P43119 whole entry): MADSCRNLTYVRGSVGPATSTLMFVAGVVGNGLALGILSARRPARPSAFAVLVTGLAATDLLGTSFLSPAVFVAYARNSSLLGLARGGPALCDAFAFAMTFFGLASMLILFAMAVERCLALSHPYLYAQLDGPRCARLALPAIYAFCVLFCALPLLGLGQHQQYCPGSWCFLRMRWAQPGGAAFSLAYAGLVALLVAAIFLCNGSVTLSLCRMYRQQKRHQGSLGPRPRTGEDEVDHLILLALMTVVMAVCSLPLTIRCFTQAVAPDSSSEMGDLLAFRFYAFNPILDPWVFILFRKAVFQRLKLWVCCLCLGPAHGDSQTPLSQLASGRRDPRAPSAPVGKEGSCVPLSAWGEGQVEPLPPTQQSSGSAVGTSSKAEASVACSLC

Compound | In vitro activity grade
O=C(NC(Cc1ccccc1)C(=O)O)c1cc(-c2ccc(OCc3ccccc3)cc2)on1 (stereo not drawn) [Example 1-2, 2-{[5-(4-Benzyloxyphenyl)isoxazole-3-carbonyl]amino}-3-phenyl-propionic acid] | A (A≦0.1 μM)
O=C(NC(Cc1ccccc1)C(=O)O)c1ccc(-c2ccc(OCc3ccccc3)cc2)cc1 (stereo not drawn) [Example 3-1, 2-[(4′-Benzyloxy-biphenyl-4-carbonyl)-amino]-3-phenyl-propionic acid] | A (A≦0.1 μM)
O=C(NC(Cc1ccccc1)C(=O)O)c1ccc(-c2ccc(OCc3ccccc3)cc2)nc1 (stereo not drawn) [Example 4-1, 2-{[6-(4-benzyloxy-phenyl)-pyridine-3-carbonyl]-amino}-3-phenyl-propionic acid] | A (A≦0.1 μM)
O=C(NC(Cc1ccccc1)C(=O)O)c1ccc(-c2cnc(OCc3ccccc3)nc2)cc1 (stereo not drawn) [Example 5-1, 2-[4-(2-Benzyloxypyrimidin-5-yl)benzoylamino]-3-phenylpropionic acid] | A (A≦0.1 μM)
Cc1cccc(COc2ccc(-c3ccc(C(=O)NC(Cc4ccccc4)C(=O)O)cc3)cc2)c1 (stereo not drawn) [Example 8-1, 2-{[4′-(3-Methylbenzyloxy)biphenyl-4-carbonyl]amino}-3-phenylpropionic acid] | A (A≦0.1 μM)
O=C(NC(Cc1ccccc1)C(=O)O)c1ccc(-c2ccc(OCc3ccc([N+](=O)[O-])cc3)cc2)cc1 (stereo not drawn) [Example 8-2] | B (0.1 μM<B≦1 μM)
O=C(NC(Cc1ccccc1)C(=O)O)c1ccc(-c2ccc(OCc3ccccc3F)cc2)cc1 (stereo not drawn) [Example 8-3] | A (A≦0.1 μM)
O=C(NC(Cc1ccccc1)C(=O)O)c1ccc(-c2ccc(OCc3cccc(F)c3)cc2)cc1 (stereo not drawn) [Example 8-4] | A (A≦0.1 μM)
O=C(NC(Cc1ccccc1)C(=O)O)c1ccc(-c2ccc(OCc3ccc(F)cc3)cc2)cc1 (stereo not drawn) [Example 8-5] | A (A≦0.1 μM)
O=C(NC(Cc1ccccc1)C(=O)O)c1ccc(-c2ccc(OCc3ccc(F)c(F)c3)cc2)cc1 (stereo not drawn) [Example 8-6] | A (A≦0.1 μM)
O=C(NC(Cc1ccccc1)C(=O)O)c1ccc(-c2ccc(OCc3c(Cl)cccc3Cl)cc2)cc1 (stereo not drawn) [Example 8-7] | A (A≦0.1 μM)
O=C(NC(Cc1ccccc1)C(=O)O)c1ccc(-c2ccc(OCc3cc(Cl)cc(Cl)c3)cc2)cc1 (stereo not drawn) [Example 8-8] | C (1 μM<C)
O=C(NC(Cc1ccccc1)C(=O)O)c1ccc(-c2ccc(OCc3ccc(Cl)cc3Cl)cc2)cc1 (stereo not drawn) [Example 8-9] | C (1 μM<C)
O=C(NC(Cc1ccccc1)C(=O)O)c1ccc(-c2ccc(OCc3ccc(Cl)c(Cl)c3)cc2)cc1 (stereo not drawn) [Example 8-10] | B (0.1 μM<B≦1 μM)
O=C(NC(Cc1ccccc1)C(=O)O)c1ccc(-c2ccc(OCc3cccc(Cl)c3Cl)cc2)cc1 (stereo not drawn) [Example 8-11] | A (A≦0.1 μM)
O=C(NC(Cc1ccccc1)C(=O)O)c1ccc(-c2ccc(OCc3c(F)cccc3F)cc2)cc1 (stereo not drawn) [Example 8-12] | B (0.1 μM<B≦1 μM)
COc1ccccc1COc1ccc(-c2ccc(C(=O)NC(Cc3ccccc3)C(=O)O)cc2)cc1 (stereo not drawn) [Example 8-13] | B (0.1 μM<B≦1 μM)
COc1cccc(COc2ccc(-c3ccc(C(=O)NC(Cc4ccccc4)C(=O)O)cc3)cc2)c1 (stereo not drawn) [Example 8-14] | A (A≦0.1 μM)
COc1ccc(COc2ccc(-c3ccc(C(=O)NC(Cc4ccccc4)C(=O)O)cc3)cc2)cc1 (stereo not drawn) [Example 8-15] | B (0.1 μM<B≦1 μM)
COc1cc(COc2ccc(-c3ccc(C(=O)NC(Cc4ccccc4)C(=O)O)cc3)cc2)cc(OC)c1OC (stereo not drawn) [Example 8-16] | C (1 μM<C)
O=C(NC(Cc1ccccc1)C(=O)O)c1ccc(-c2ccc(OCc3ccccc3Cl)cc2)cc1 (stereo not drawn) [Example 8-17] | A (A≦0.1 μM)
